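Briefly, cells in 96-well plates were exposed to five compound concentrations for 48 h, and endpoints were estimated by linear interpolation. At the GI50, growth is halved.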 The source made the active and inactive calls. No stated cut-off is given here; in the data, active = GI50 up to about 1.1 µM and inactive = higher.
Tests used:
Assay in all cases: inhibition of tumour cell growth, NCI panel, 48 h
[1] = test system: LXFL 529
[2] = test system: RXF 393
[3] = test system: SR
[4] = test system: A549
[5] = test system: HOP-62
[6] = test system: MDA-MB-231
[7] = test system: SNB-75
[8] = test system: TK-10
[9] = test system: NCI-H23
[10] = test system: SK-OV-3
[11] = test system: IGROV-1
[12] = test system: NCI/ADR-RES
[13] = test system: U-251
[14] = test system: NCI-H226
[15] = test system: MCF7
[16] = test system: SF-295
[17] = test system: BT-549
[18] = test system: UACC-62
[19] = test system: HCT-15
[20] = test system: OVCAR-5
[21] = test system: DMS-273
[22] = test system: NCI-H522
[23] = test system: OVCAR-8
[24] = test system: DLD-1
[25] = test system: RPMI-8226
[26] = test system: M19-MEL
[27] = test system: MDA-N
[28] = test system: KM12
[29] = test system: Malme-3M
[30] = test system: A498
[31] = test system: HOP-18
[32] = test system: SK-MEL-2
[33] = test system: DU-145
[34] = test system: SN12C
[35] = test system: PC-3
[36] = test system: HCT-116
[37] = test system: SNB-19
[38] = test system: XF498
[39] = test system: MDA-MB-435
[40] = test system: Hs-578T
[41] = test system: OVCAR-3
[42] = test system: COLO 205
[43] = test system: M14
[44] = test system: ACHN
[45] = test system: HOP-92
[46] = test system: KM-20L2
[47] = test system: MOLT-4
[48] = test system: SF-268
[49] = test system: NCI-H460
[50] = test system: HL-60
[51] = test system: CAKI-1
[52] = test system: HT-29
[53] = test system: UACC-257
[54] = test system: UO-31
[55] = test system: T47D
[56] = test system: SF-539
[57] = test system: SNB-78
[58] = test system: CCRF-CEM
[59] = test system: LOX IMVI
[60] = test system: SK-MEL-5
[61] = test system: DMS-114
[62] = test system: EKVX
[63] = test system: 786-0
[64] = test system: K562
[65] = test system: OVCAR-4
[66] = test system: SW-620
[67] = test system: HCC 2998
[68] = test system: SK-MEL-28
[69] = test system: RXF 631

Compound: CN1C(c2ccccc2)CC(=NOCc2ccccc2)CC1c1ccccc1 (centres undefined)
- GI50 [1]: 16.8 µM (inactive)
- GI50 [2]: 54.5 µM (inactive)
- GI50 [3]: 13.6 µM (inactive)
- GI50 [4]: 20.7 µM (inactive)
- GI50 [5]: 49.5 µM (inactive)
- GI50 [6]: 43.7 µM (inactive)
- GI50 [7]: 31.4 µM (inactive)
- GI50 [8]: 46.9 µM (inactive)
- GI50 [9]: 28.2 µM (inactive)
- GI50 [10]: 75 µM (inactive)
- GI50 [11]: 38.1 µM (inactive)
- GI50 [12]: 19.3 µM (inactive)
- GI50 [13]: 34.1 µM (inactive)
- GI50 [14]: 52.8 µM (inactive)
- GI50 [15]: 18.6 µM (inactive)
- GI50 [16]: 44.2 µM (inactive)
- GI50 [17]: 16.9 µM (inactive)
- GI50 [18]: 52.4 µM (inactive)
- GI50 [19]: 23.2 µM
- GI50 [20]: 70.8 µM (inactive)
- GI50 [21]: 33.7 µM (inactive)
- GI50 [22]: 21.8 µM (inactive)
- GI50 [23]: 21.5 µM (inactive)
- GI50 [24]: 46.7 µM (inactive)
- GI50 [25]: 37.2 µM (inactive)
- GI50 [26]: > 100 µM (inactive)
- GI50 [27]: 23.3 µM (inactive)
- GI50 [28]: 21.9 µM (inactive)
- GI50 [29]: 50.9 µM (inactive)
- GI50 [30]: 44.7 µM (inactive)
- GI50 [31]: 48 µM (inactive)
- GI50 [32]: 57.4 µM (inactive)
- GI50 [33]: 47.6 µM (inactive)
- GI50 [34]: 44.6 µM (inactive)
- GI50 [35]: 24.7 µM (inactive)
- GI50 [36]: 18.5 µM (inactive)
- GI50 [37]: 44.3 µM (inactive)
- GI50 [38]: > 100 µM (inactive)
- GI50 [39]: 16.9 µM (inactive)
- GI50 [40]: 36 µM (inactive)
- GI50 [41]: 29 µM (inactive)
- GI50 [42]: 50.6 µM (inactive)
- GI50 [43]: 42.5 µM (inactive)
- GI50 [44]: 46.1 µM (inactive)
- GI50 [45]: 48.9 µM (inactive)
- GI50 [46]: > 80.2 µM (inactive)
- GI50 [47]: 23.7 µM (inactive)
- GI50 [48]: 24.3 µM (inactive)
- GI50 [49]: 19.1 µM (inactive)
- GI50 [50]: 19 µM (inactive)
- GI50 [51]: 55 µM (inactive)
- GI50 [52]: 26.2 µM (inactive)
- GI50 [53]: 64.7 µM (inactive)
- GI50 [54]: 43.6 µM (inactive)
- GI50 [55]: 17.7 µM (inactive)
- GI50 [56]: 36.9 µM (inactive)
- GI50 [57]: 42.5 µM (inactive)
- GI50 [58]: 11.6 µM (inactive)
- GI50 [59]: 14.8 µM (inactive)
- GI50 [60]: 33.7 µM (inactive)
- GI50 [61]: 17.7 µM (inactive)
- GI50 [62]: 41.3 µM (inactive)
- GI50 [63]: 38.9 µM (inactive)
- GI50 [64]: 13.8 µM (inactive)
- GI50 [65]: 22.5 µM (inactive)
- GI50 [66]: 28.1 µM (inactive)
- GI50 [67]: > 71.9 µM (inactive)
- GI50 [68]: 40.8 µM (inactive)
- GI50 [69]: 31.2 µM (inactive)

Reference: ChEMBL document CHEMBL1201862, “PubChem BioAssay data set” (2004)
